# Patent US11246818B2, “Peptides and compositions for use in cosmetics” (LIPOTRUE, S.L., priority 2017, dated 2022)
# What was measured:
# [1] = Trolox Equivalent Antioxidant Capacity (TEAC), ABTS Decolorization Assay; format: biochemical
# Method: As positive controls of the assay, ascorbic acid 2-glucoside (hereinafter, AA-2G) and magnesium ascorbyl phosphate (hereinafter, MAP) were tested.
# TEAC assay was used in this case. Said assay measures the antioxidant capacity of a given substance, as compared to the standard, Trolox, an analogue of Vitamin E.
# Antioxidant capacity was measured using the ABTS Decolorization Assay. In this assay, the pre-formed radical monocation of 2,2′-azinobis-(3-ethylbenzothiazoline-6-sulfonic acid) (ABTS*+) was generated by oxidation of ABTS with potassium persulfate and was reduced in the presence of antioxidants (Ac-SEQ ID NO: 1-NH2, Ac-SEQ ID NO: 2-NH2, Ac-SEQ ID NO: 3-NH2 or Ferulic acid-SEQ ID NO: 2-NH2). The ABTS.+ has a blue-green color, with maximum absorptions at 650, 734 and 820 nm. Antioxidants in the sample reduce ABTS.+ suppressing this color production to a degree that is proportional to their concentrations and antioxidant capacity. Quantification of absorbance was conducted at 734 nm using a Polarstar Omega equipment (BMG Labtech).
# [2] = test system: Primary human epidermal melanocytes; assay: Brightening activity: intracellular melanin content; format: cell-based; details: 7 days; for decrease in melanin content compared with positive reference control (kojic acid): 70 μM kojic acid
# Method: Two concentrations of kojic acid were used as positive control.
# (§1) Kojic acid was used as positive control.
# Primary human epidermal melanocytes were incubated in 6-well plates for 4 days and then treated with the compounds to be analysed (Ac-SEQ ID NO: 1-NH2, Ac-SEQ ID NO: 2-NH2, Ac-SEQ ID NO: 3-NH2 or Ferulic acid-SEQ ID NO: 2-NH2) for 7 days. After treatment, cells were homogenized an intracellular melanin content was quantified by absorbance at 450 nm by Multiskan FC (Thermo Fisher Scientific, MA, USA).
# [3] = test system: recombinant mushroom tyrosinase; assay: Mushroom tyrosinase activity in tubo (L-DOPA); format: biochemical
# Method: as §1, §1
# After 2 hours' reaction at room temperature, the absorbance at 450 nm of each well was determined using the microplate reader Multiskan FC (Thermo Fisher Scientific, MA, USA), which is directly proportional to the amount of dopachrome in the reaction mixture.
# HEMn cells [4] = assay: Gene expression of melanogenic pathways, HEMn cells, 11-day treatment (RTqPCR); format: cell-based, human
# From the text: Changes in gene expression levels are represented as a positive or negative fold-change with regard to the basal control (untreated cells). For FIG. 16(A), bars from top to bottom in the y-axis refer to: COX-1 (Cyclooxigenase-1), MITF ([…]), MC1R (Melanocortin-1 receptor), MLAN-A (Melanoma antigen recognized by T-cells), C-KIT (Protoongogen receptor tyrosine kinase KIT), PMEL17 (Pre-melanosome protein), DCT-TYRP2 (Dopachrome tautomerase), TYRP-1 (Tyrosinase related protein 1) and TYR (Tyrosinase). For FIG. 16(B), bars from top to bottom in the y-axis refer to: BLOC-1 (Biogenesis of lysosome-related organelles complex-1), MITF ([…]), MC1R (Melanocortin-1 receptor), MLAN-A (Melanoma antigen recognized by T-cells), C-KIT (Protoongogen receptor tyrosine kinase KIT), PMEL17 (Pre-melanosome protein), DCT-TYRP2 (Dopachrome tautomerase), TYRP-1 (Tyrosinase related protein 1) and TYR (Tyrosinase). The x-axis refers to fold change versus basal control.
# Changes in gene expression levels are represented as a positive or negative fold-change with regard to the basal control (untreated cells). Bars from top to bottom in the y-axis refer to: VDR (Vitamin D receptor), PMEL17 (Pre-melanosome protein) and DCT-TYRP2 (Dopachrome tautomerase). The x-axis refers to fold change versus basal control.
# In the case of HEMn cells, cells were left in culture for 12 days (from day 0 to day 11, 11-day treatment) at standard culture conditions (37° C., 95% humidity, 5% CO2) and treated with non-cytotoxic concentrations of Ac-SEQ ID NO: 3-NH2 (0.1 mg/mL) or Ferulic acid-SEQ ID NO: 2-NH2 (0.05 mg/mL) from day 4 to day 11.
# (§2) Untreated cells were used as basal control. Cells were then lysed for RNA extraction with a RNA purification commercial kit following manufacturer instructions (RNeasy mini kit, Qiagen, Netherlands). RNA was then quantified by nanodrop, adjusted in concentration and processed for retrotranscription to cDNA using a commercially available kit (High-Capacity cDNA Reverse Transcription kit—Thermofisher Scientific, USA). Resulting cDNA was used to perform a RTqPCR (Real Time Quantitative Polymerase Chain Reaction) using Taqman technology and a panel of probes designed to target specific genes related to melanogenesis and HEMn-HEKa and HEMn-HDFa communication.
# HEMn cells [5] = assay: Gene expression of melanogenic pathways, HEMn cells, 24-hour treatment (RTqPCR); format: cell-based, human; details: 0.1 mg/mL, treatment at 24 h
# From the text: Changes in gene expression levels are represented as a positive or negative fold-change with regard to the basal control (untreated cells). For FIG. 16(A), bars from top to bottom in the y-axis refer to: COX-1 (Cyclooxigenase-1), MITF ([…]), MC1R (Melanocortin-1 receptor), MLAN-A (Melanoma antigen recognized by T-cells), C-KIT (Protoongogen receptor tyrosine kinase KIT), PMEL17 (Pre-melanosome protein), DCT-TYRP2 (Dopachrome tautomerase), TYRP-1 (Tyrosinase related protein 1) and TYR (Tyrosinase). […]
# as §2, with “Cells were then lysed for RNA extraction with a RNA purification commercial kit following manufacturer instructions (RNeasy mini kit, Qiagen, Netherlands).” left out
# HEKa cells = assay: Gene expression of HEMn-HEKa communication and melanogenic factors, HEKa cells, 24-hour treatment (RTqPCR); format: cell-based, human
# From the text: (§3) Changes in gene expression levels are represented as a positive or negative fold-change with regard to the basal control (untreated cells). Bars from top to bottom in the y-axis refer to: KITLG (KIT ligand), TP53 (Tumor protein p53), DKK1 (Dickkopf-related protein 1) and NGF (Nerve growth factor). The x-axis refers to fold change verus basal control.
# as §3, with “POMC (Pro-opiomelanocortin), EDN1 (Endothelin-1)” for “TP53 (Tumor protein p53), DKK1 (Dickkopf-related protein 1)”, “versus” for “verus”
# Briefly, HEKa cells were seeded in duplicate in 6-well plates at a density of 4×10^5 cells/well and maintained at standard culture conditions (37° C., 95% humidity, 5% CO2) for 24 hours. Then, cells were treated with non-cytotoxic concentrations of Ac-SEQ ID NO: 3-NH2 (0.1 mg/mL) or Ferulic acid-SEQ ID NO: 2-NH2 (0.05 mg/mL) for an additional 24 hours.
# as §2
# [6] = DPPH free radical scavenging assay in tubo; format: biochemical
# From the text: The capacity to scavenge the stable DPPH free radical can be expressed as a measure of antioxidant activity.
# During this assay, the purple chromogen (DPPH) radical was reduced by antioxidant/reducing compounds to the corresponding pale-yellow hydrazine. The reduction of the purple chromogen radical by hydrogen-donating antioxidants was monitored by the decrease of optical density at long wavelengths (515-520 nm).
# Ascorbic acid was also included in the assay as positive control for scavenger activity evaluation at 30 μM and 60 μM. After 30 minutes of incubation at room temperature and gentle shaking, the absorbance at 520 nm of each well was determined using the microplate reader Multiskan FC (Thermo Fisher Scientific, MA, USA), being directly proportional to the amount of DPPH left (not-scavenged) in the reaction mixture. Absorbance values were normalized on the basis of the control (non-treated wells) which was stablished as 100%, obtaining the corresponding percentage of activity for each of the treatments.
molecule,measurement,setting,value
Ac-Leu-His-Trp-Phe-Arg-Ala-NH2 (Ac-LHWFRA-NH2) [Ac-SEQ ID NO: 3-NH2],trolox equivalents,[1]; 0.01 mg/mL,28 µM
same,trolox equivalents,[1]; 0.05 mg/mL,59 µM
same,trolox equivalents,[1]; 0.1 mg/mL,74 µM
same,decrease in melanin content,[2]; 0.1 mg/mL,49.3%
same,decrease in melanin content compared with positive reference control (kojic acid),[2],higher than the positive reference control
same,decrease in tyrosinase activity,[3]; 0.5 mg/mL,30.6%
same,decrease in tyrosinase activity,[3]; 1 mg/mL,58.1%
same,"C-KIT gene expression, fold change versus basal control",HEMn cells [4]; 0.1 mg/mL,−1.78 fold change
same,"COX-1 gene expression, fold change versus basal control",HEMn cells [4]; 0.1 mg/mL,−1.51 fold change
same,"DCT-TYRP2 gene expression, fold change versus basal control",HEMn cells [4]; 0.1 mg/mL,−1.40 fold change
same,"MC1R gene expression, fold change versus basal control",HEMn cells [4]; 0.1 mg/mL,−1.28 fold change
same,"MITF gene expression, fold change versus basal control",HEMn cells [4]; 0.1 mg/mL,−1.48 fold change
same,"MLAN-A gene expression, fold change versus basal control",HEMn cells [4]; 0.1 mg/mL,−1.88 fold change
same,"PMEL17 gene expression, fold change versus basal control",HEMn cells [4]; 0.1 mg/mL,−2.30 fold change
same,"TYR gene expression, fold change versus basal control",HEMn cells [4]; 0.1 mg/mL,−1.66 fold change
same,"TYRP-1 gene expression, fold change versus basal control",HEMn cells [4]; 0.1 mg/mL,−1.64 fold change
same,expression of genes of the melanogenic pathway,HEMn cells [5],tendency to downregulate gene expression was also observed
same,DKK-1 gene expression,HEKa cells; 0.1 mg/mL,upregulation
same,KITLG gene expression,HEKa cells; 0.1 mg/mL,downregulation
same,NGF gene expression,HEKa cells; 0.1 mg/mL,downregulation
same,TP53 gene expression,HEKa cells; 0.1 mg/mL,downregulation
Ferulic acid-His-Trp-Phe-Lys-NH2 [Ferulic acid-SEQ ID NO: 2-NH2],trolox equivalents,[1]; 0.01 mg/mL,59 µM
same,trolox equivalents,[1]; 0.05 mg/mL,112 µM
same,trolox equivalents,[1]; 0.1 mg/mL,113 µM
same,antioxidant power compared with MAP,[1]; at this same concentration (0.05 mg/mL),equals MAP values of trolox equivalents
same,antioxidant power compared with AA-2G,[1]; concentrations >0.05 mg/mL,higher than the one of AA-2G
same,reduction of DPPH,"[6]; 0.05 mg/mL, 300 μM DPPH, 30 minutes",48.3%
same,reduction of DPPH,"[6]; 0.1 mg/mL, 300 μM DPPH, 30 minutes",72.9%
same,reduction of DPPH,"[6]; 0.5 mg/mL, 300 μM DPPH, 30 minutes",90.6%
same,decrease in melanin content,[2]; 0.05 mg/mL,36%
same,decrease in melanin content compared with positive reference control (kojic acid),[2],comparable
same,decrease in tyrosinase activity,[3]; 0.05 mg/mL,12%
same,decrease in tyrosinase activity,[3]; 0.1 mg/mL,46.5%
same,decrease in tyrosinase activity,[3]; 0.5 mg/mL,71%
same,DCT-TYRP2 expression,HEMn cells [4]; 0.05 mg/mL,slight tendency to downregulate
same,PMEL17 expression,HEMn cells [4]; 0.05 mg/mL,slight tendency to downregulate
same,"VDR gene expression, fold change versus basal control",HEMn cells [4]; 0.05 mg/mL,1.48 fold change
same,EDN1 gene expression,HEKa cells; 0.05 mg/mL,downregulation
same,KITLG gene expression,HEKa cells; 0.05 mg/mL,downregulation
same,NGF gene expression,HEKa cells; 0.05 mg/mL,downregulation
same,POMC gene expression,HEKa cells; 0.05 mg/mL,downregulation
Ac-His-Trp-Phe-Lys-NH2 (Ac-HWFK-NH2) [Ac-SEQ ID NO: 2-NH2],trolox equivalents,[1]; 0.05 mg/mL,22 µM
same,trolox equivalents,[1]; 0.1 mg/mL,49 µM
same,trolox equivalents,[1]; 0.5 mg/mL,130 µM
same,antioxidant power compared with AA-2G and MAP,[1]; the higher concentration tested (0.5 mg/mL),higher antioxidant power than AA-2G and MAP
same,brightening or whitening activity compared with kojic acid,"[2]; all the concentrations tested (0.01, 0.05, 0.1 mg/ml), kojic acid 10 and 50 μM",significantly higher brightening or whitening activity
same,increased brightening activity relative to the activity of the two concentrations of kojic acid,"[2]; all the concentrations tested, kojic acid 10 and 50 μM",two to more than four times
"O=C1O[C@H]([C@@H](O)CO)C(O)=C1O [ascorbic acid, reference compound]",reduction of DPPH,"[6]; 30 μM, positive control",31.3%
same,reduction of DPPH,"[6]; 60 μM, positive control",67.6%
